Experimental data as given in the supplement of paper PMC10733146.

Legend:
Test in all cases: viability relative to DMSO control (fraction); higher = less drug effect (more viable cells)
Details in all cases: 48 h
[1] = system: primary AML patient cells (S056)
Method in brief: (§1)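 Viability was quantified by CellTiter-Glo luminescence and related to the median of 16 inner DMSO wells. Before that, primary mononuclear tumour cells, fresh or cryopreserved and Ficoll-isolated from blood or bone marrow or prepared from processed lymph node, were plated at 4 × 10^4 cells per well in 384-well plates containing pre-plated compounds at five concentrations, one well each. Plates were incubated in RPMI-1640 with penicillin/streptomycin, L-glutamine and human serum at 37 °C and 5% CO2 for 48 h.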

[2] = system: primary ALL patient cells (S048)
Method in brief: as §1

[3] = system: primary AML patient cells (S012)
Method in brief: as §1

[4] = system: primary CLL patient cells (S031)
Method in brief: as §1

[5] = system: primary AML patient cells (S079)
Method in brief: as §1

[6] = system: primary AML patient cells (S019)
Method in brief: as §1

[7] = system: primary ALL patient cells (S088)
Method in brief: as §1

[8] = system: primary MCL patient cells (S063)
Method in brief: as §1

[9] = system: primary MCL patient cells (S041)
Method in brief: as §1

[10] = system: primary AML patient cells (S011)
Method in brief: as §1

[11] = system: primary FL patient cells (S022)
Method in brief: as §1

[12] = system: primary AML patient cells (S006)
Method in brief: as §1

[13] = system: primary AML patient cells (S085)
Method in brief: as §1

[14] = system: primary FL patient cells (S087)
Method in brief: as §1

For Nc1ncn([C@H]2C[C@H](O)[C@@H](CO)O2)c(=O)n1 [Decitabine (Dacogen)], the viability ([1]; 0.024 µM) was 0.971, the viability ([1]; 0.12 µM) was 0.876 and the viability ([1]; 0.6 µM) was 0.912. It also gave a viability ([1]; 3 µM) of 0.8, a viability ([1]; 15 µM) of 0.766 and a viability ([2]; 0.024 µM) of 0.967. It also gave a viability ([2]; 0.12 µM) of 0.89, a viability ([2]; 0.6 µM) of 0.938 and a viability ([2]; 3 µM) of 0.843. The viability ([2]; 15 µM) was 0.82, the viability ([3]; 0.024 µM) was 1 and the viability ([3]; 0.12 µM) was 0.92. For the same compound, the viability ([3]; 0.6 µM) was 0.943, the viability ([3]; 3 µM) was 0.945 and the viability ([3]; 15 µM) was 0.929. For the same compound, the viability ([4]; 0.024 µM) was 1.02, the viability ([4]; 0.12 µM) was 0.916 and the viability ([4]; 0.6 µM) was 1.04. For the same compound, the viability ([4]; 3 µM) was 0.869, the viability ([4]; 15 µM) was 0.965 and the viability ([5]; 0.024 µM) was 1.02. The viability ([5]; 0.12 µM) was 0.953, the viability ([5]; 0.6 µM) was 0.989 and the viability ([5]; 3 µM) was 0.889. It also gave a viability ([5]; 15 µM) of 0.814, a viability ([6]; 0.024 µM) of 1.11 and a viability ([6]; 0.12 µM) of 0.753. It also gave a viability ([6]; 0.6 µM) of 1.04, a viability ([6]; 3 µM) of 0.684 and a viability ([6]; 15 µM) of 0.918. For the same compound, the viability ([7]; 0.024 µM) was 0.978, the viability ([7]; 0.12 µM) was 0.886 and the viability ([7]; 0.6 µM) was 0.982. The viability ([7]; 3 µM) was 0.778, the viability ([7]; 15 µM) was 0.799 and the viability ([8]; 0.024 µM) was 1.03. The viability ([8]; 0.12 µM) was 0.985, the viability ([8]; 0.6 µM) was 1.03 and the viability ([8]; 3 µM) was 0.974. The viability ([8]; 15 µM) was 0.977, the viability ([9]; 0.024 µM) was 1.06 and the viability ([9]; 0.12 µM) was 0.969. For the same compound, the viability ([9]; 0.6 µM) was 1.06, the viability ([9]; 3 µM) was 0.961 and the viability ([9]; 15 µM) was 0.984. For the same compound, the viability ([10]; 0.024 µM) was 0.963, the viability ([10]; 0.12 µM) was 0.887 and the viability ([10]; 0.6 µM) was 1.1. The viability ([10]; 3 µM) was 0.887, the viability ([10]; 15 µM) was 0.956 and the viability ([11]; 0.024 µM) was 1.12. It also gave a viability ([11]; 0.12 µM) of 0.952, a viability ([11]; 0.6 µM) of 1.01 and a viability ([11]; 3 µM) of 0.937. The viability ([11]; 15 µM) was 0.962, the viability ([12]; 0.024 µM) was 0.971 and the viability ([12]; 0.12 µM) was 0.877. The viability ([12]; 0.6 µM) was 1, the viability ([12]; 3 µM) was 0.747 and the viability ([12]; 15 µM) was 0.716. It also gave a viability ([13]; 0.024 µM) of 0.939, a viability ([13]; 0.12 µM) of 0.904 and a viability ([13]; 0.6 µM) of 0.909. The viability ([13]; 3 µM) was 0.807, the viability ([13]; 15 µM) was 0.687 and the viability ([14]; 0.024 µM) was 0.969. The viability ([14]; 0.12 µM) was 0.89, the viability ([14]; 0.6 µM) was 0.981 and the viability ([14]; 3 µM) was 0.864. The viability ([14]; 15 µM) was 0.966.
Work on Nc1nc(=S)c2[nH]cnc2[nH]1 [Thioguanin] yielded a viability ([1]; 0.024 µM) of 0.912, a viability ([1]; 0.12 µM) of 0.897 and a viability ([1]; 0.6 µM) of 0.889. The viability ([1]; 3 µM) was 0.339, the viability ([1]; 15 µM) was 0.127 and the viability ([2]; 0.024 µM) was 0.949. The viability ([2]; 0.12 µM) was 0.906, the viability ([2]; 0.6 µM) was 0.664 and the viability ([2]; 3 µM) was 0.37. The viability ([2]; 15 µM) was 0.17, the viability ([3]; 0.024 µM) was 0.99 and the viability ([3]; 0.12 µM) was 1. For the same compound, the viability ([3]; 0.6 µM) was 0.946, the viability ([3]; 3 µM) was 0.751 and the viability ([3]; 15 µM) was 0.513. For the same compound, the viability ([4]; 0.024 µM) was 1.07, the viability ([4]; 0.12 µM) was 0.972 and the viability ([4]; 0.6 µM) was 0.801. For the same compound, the viability ([4]; 3 µM) was 0.613, the viability ([4]; 15 µM) was 0.327 and the viability ([5]; 0.024 µM) was 1.02. For the same compound, the viability ([5]; 0.12 µM) was 0.821, the viability ([5]; 0.6 µM) was 0.575 and the viability ([5]; 3 µM) was 0.453. It also gave a viability ([5]; 15 µM) of 0.254, a viability ([6]; 0.024 µM) of 1.04 and a viability ([6]; 0.12 µM) of 1.18. It also gave a viability ([6]; 0.6 µM) of 0.65, a viability ([6]; 3 µM) of 0.497 and a viability ([6]; 15 µM) of 0.57. The viability ([7]; 0.024 µM) was 1.03, the viability ([7]; 0.12 µM) was 1.08 and the viability ([7]; 0.6 µM) was 0.904. It also gave a viability ([7]; 3 µM) of 0.565, a viability ([7]; 15 µM) of 0.281 and a viability ([8]; 0.024 µM) of 1.03. The viability ([8]; 0.12 µM) was 0.867, the viability ([8]; 0.6 µM) was 0.495 and the viability ([8]; 3 µM) was 0.192. The viability ([8]; 15 µM) was 0.064, the viability ([9]; 0.024 µM) was 1.02 and the viability ([9]; 0.12 µM) was 0.879. For the same compound, the viability ([9]; 0.6 µM) was 0.681, the viability ([9]; 3 µM) was 0.515 and the viability ([9]; 15 µM) was 0.388. The viability ([10]; 0.024 µM) was 1.02, the viability ([10]; 0.12 µM) was 0.977 and the viability ([10]; 0.6 µM) was 0.658. It also gave a viability ([10]; 3 µM) of 0.339, a viability ([10]; 15 µM) of 0.239 and a viability ([11]; 0.024 µM) of 0.991. For the same compound, the viability ([11]; 0.12 µM) was 0.955, the viability ([11]; 0.6 µM) was 0.835 and the viability ([11]; 3 µM) was 0.622. It also gave a viability ([11]; 15 µM) of 0.483, a viability ([12]; 0.024 µM) of 1.07 and a viability ([12]; 0.12 µM) of 0.996. For the same compound, the viability ([12]; 0.6 µM) was 0.57, the viability ([12]; 3 µM) was 0.202 and the viability ([12]; 15 µM) was 0.0984. For the same compound, the viability ([13]; 0.024 µM) was 1.03, the viability ([13]; 0.12 µM) was 1 and the viability ([13]; 0.6 µM) was 0.714. It also gave a viability ([13]; 3 µM) of 0.402, a viability ([13]; 15 µM) of 0.24 and a viability ([14]; 0.024 µM) of 0.998. It also gave a viability ([14]; 0.12 µM) of 0.952, a viability ([14]; 0.6 µM) of 0.804 and a viability ([14]; 3 µM) of 0.688. It also gave a viability ([14]; 15 µM) of 0.645.
